Counter-ions that a name gives are not always drawn.
Assays:
Assay in all cases: viability inhibition at highest dose (% inhibition); higher = more growth inhibition
[1] = system: BT-474 Tam1; details: 4-OH-tamoxifen in medium 1 µM; 72 h
Procedure: (§1)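 Percent inhibition of viability (CellTiter-Glo, 72 h) at the highest tested concentration (D5), normalised to DMSO (0%) and 100 µM benzethonium chloride (100%). Resistant lines and the 'in 1µM tamoxifen' arms were tested in 1 µM 4-OH-tamoxifen.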

[2] = system: BT-474 Tam2; details: 4-OH-tamoxifen in medium 1 µM; 72 h
Procedure: as §1

[3] = system: BT-474; details: 72 h
Procedure: as §1

[4] = system: MCF-7 Tam1; details: 4-OH-tamoxifen in medium 1 µM; 72 h
Procedure: as §1

[5] = system: MCF-7; details: 72 h
Procedure: as §1

[6] = system: T-47D Tam1; details: 4-OH-tamoxifen in medium 1 µM; 72 h
Procedure: as §1

[7] = system: T-47D Tam2; details: 4-OH-tamoxifen in medium 1 µM; 72 h
Procedure: as §1

[8] = system: T-47D; details: 72 h
Procedure: as §1

[9] = system: ZR-75-1 Tam1; details: 4-OH-tamoxifen in medium 1 µM; 72 h
Procedure: as §1

[10] = system: ZR-75-1 Tam2; details: 4-OH-tamoxifen in medium 1 µM; 72 h
Procedure: as §1

[11] = system: ZR-75-1; details: 72 h
Procedure: as §1

SMILES | viability inhibition at highest dose [1] | viability inhibition at highest dose [2] | viability inhibition at highest dose ([3]; 4-OH-tamoxifen in medium 0 µM) | viability inhibition at highest dose ([3]; 4-OH-tamoxifen in medium 1 µM) | viability inhibition at highest dose [4] | viability inhibition at highest dose ([5]; 4-OH-tamoxifen in medium 0 µM) | viability inhibition at highest dose ([5]; 4-OH-tamoxifen in medium 1 µM) | viability inhibition at highest dose [6] | viability inhibition at highest dose [7] | viability inhibition at highest dose ([8]; 4-OH-tamoxifen in medium 0 µM) | viability inhibition at highest dose ([8]; 4-OH-tamoxifen in medium 1 µM) | viability inhibition at highest dose [9] | viability inhibition at highest dose [10] | viability inhibition at highest dose ([11]; 4-OH-tamoxifen in medium 0 µM) | viability inhibition at highest dose ([11]; 4-OH-tamoxifen in medium 1 µM)
Nc1cc(C(F)(F)F)c(-c2cc(N3CCOCC3)nc(N3CCOCC3)n2)cn1 [Buparlisib (BKM-120)] (drug 10000 nM) | 93.8 | 89.9 | 64.5 | 88.6 | 42.8 | 72.8 | 72.2 | 70.7 | 71.3 | 75.8 | 77.6 | 57 | 61.8 | 57.9 | 48.8
CS(=O)(=O)OCCCCOS(C)(=O)=O [Busulfan] (drug 100000 nM) | -2.76 | 1 | 1.99 | 8.07 | -1.89 | -5.52 | 10.5 | 1.25 | 6.32 | -1.41 | -0.37 | -5.35 | -11.6 | 1.38 | -1.26
CC[C@H](Nc1ncnc2[nH]cnc12)c1nc2cccc(F)c2c(=O)n1-c1ccccc1 [CAL-101] (drug 10000 nM) | 8.87 | 5.84 | 4.44 | 17 | -0.638 | 22.4 | 21.3 | 24.5 | 33.6 | 15.2 | 13.7 | 50.8 | 57.3 | 45.9 | 45
C#Cc1cccc(Nc2ncnc3cc(OC)c(OCCCCCCC(=O)NO)cc23)c1 [CUDC-101] (drug 10000 nM) | 95.6 | 94.4 | 93.9 | 97 | 48.3 | 89.6 | 94.5 | 88.4 | 76.8 | 95.1 | 94.8 | 42.4 | 54.5 | 42.7 | 51.5
COc1cc2nccc(Oc3ccc(NC(=O)C4(C(=O)Nc5ccc(F)cc5)CC4)cc3)c2cc1OC [Cabozantinib (XL184)] (drug 1000 nM) | 22.4 | 7.72 | -10.4 | 16 | 1.76 | 5.85 | 11.3 | 2.69 | 10.4 | -4.29 | -1.77 | 6.25 | 2.11 | -14.6 | -2.98
CC[C@@]1(O)C(=O)OCc2c1cc1n(c2=O)Cc2cc3ccccc3nc2-1 [Camptothecin] (drug 5000 nM) | 4.82 | -15.3 | -9.54 | 0.861 | 49.1 | 85.5 | 87.2 | 49.6 | 35.6 | 61 | 28.7 | 54.1 | 57.9 | 52.9 | 41.1
C=CC(=O)Nc1cc2c(Nc3ccc(F)c(Cl)c3)ncnc2cc1OCCCN1CCOCC1 [Canertinib] (drug 10000 nM) | 90 | 93.5 | 80.1 | 92.3 | 28 | 64.2 | 71.1 | 46.6 | 63.2 | 38.9 | 24.2 | 37.1 | 44.3 | 41.4 | 35.5
CCCCCOC(=O)Nc1nc(=O)n([C@@H]2O[C@H](C)[C@@H](O)[C@H]2O)cc1F [Capecitabine] (drug 10000 nM) | 0.103 | -6.54 | -9.89 | -7.23 | -12 | -4.69 | -0.939 | 1.61 | 2.81 | -17.6 | -17 | 11.1 | 7.55 | 24.8 | 0.654
O=C(O)C1(C(=O)O)CCC1.[NH2-].[NH2-].[Pt+2] [Carboplatin] (drug 10000 nM) | -1.28 | 3.89 | -12.2 | -19 | -6.52 | 1.69 | 6.48 | -4.98 | 1.93 | -16.3 | -18 | 2.36 | -0.671 | -16.2 | -1.87
CC(C)C[C@H](NC(=O)[C@H](CCc1ccccc1)NC(=O)CN1CCOCC1)C(=O)N[C@@H](Cc1ccccc1)C(=O)N[C@@H](CC(C)C)C(=O)[C@@]1(C)CO1 [Carfilzomib] (drug 1000 nM) | 97.8 | 93.7 | 79.9 | 96.2 | 92.7 | 91.8 | 96.5 | 96.3 | 96.8 | 86.2 | 91.1 | 80.2 | 75.9 | 76.9 | 85.7
O=NN(CCCl)C(=O)NCCCl [Carmustine] (drug 10000 nM) | -0.31 | 4.36 | -6.34 | -3.07 | -12.7 | -2.85 | 5.33 | 0.948 | 2.64 | -12.6 | -5.73 | -2.37 | 0.516 | -12.9 | -8.4
COc1cc2c(Oc3ccc4[nH]c(C)cc4c3F)ncnc2cc1OCCCN1CCCC1 [Cediranib (AZD2171, Recentin)] (drug 1000 nM) | 15.2 | 6.19 | 1.02 | 39.4 | 1.79 | 11.5 | 2.46 | 2.94 | 2.12 | 2.79 | 7.26 | 4.06 | 5.44 | 9.26 | 4.94
Cc1ccc(-c2cc(C(F)(F)F)nn2-c2ccc(S(N)(=O)=O)cc2)cc1 [Celecoxib] (drug 10000 nM) | 12.6 | 4.93 | -0.849 | 1.11 | 4.31 | 15.2 | 5.23 | 2.27 | 18.3 | -3.21 | 5.57 | 4.71 | -10.3 | -12 | 11.6
O=C(O)CCCc1ccc(N(CCCl)CCCl)cc1 [Chlorambucil] (drug 10000 nM) | -1.33 | -11.1 | -5.56 | -5.81 | -8.39 | 2.18 | -4.5 | -7.66 | 9.69 | -20.9 | 1.91 | 3.96 | -11.1 | -4.67 | -2.49
CCN(CC)CCCC(C)Nc1ccnc2cc(Cl)ccc12 (stereo not given) [Chloroquine] (drug 990000 nM) | 19 | 7.83 | -6.4 | -13.3 | -1.25 | -2.81 | 0.449 | 3.21 | -12.2 | -0.514 | -3.72 | 0.712 | 6.98 | -2.67 | -3.36
N.N.[Cl][Pt][Cl] [Cisplatin] (drug 10000 nM) | -9.25 | 2.59 | -3.72 | -4.53 | 3.44 | -20.9 | 0.697 | -3.02 | 8.3 | -16.1 | -8.72 | 3.43 | -1.7 | -8.66 | -5.04
Nc1nc(Cl)nc2c1ncn2[C@H]1C[C@H](O)[C@@H](CO)O1 [Cladribine] (drug 1000 nM) | -9.7 | -11.6 | -15.8 | -9.47 | -0.292 | -15.2 | 6.39 | 25.8 | 11.4 | -1.69 | -2.3 | 21 | 20 | 15.2 | 15.8
O=P1(N(CCCl)CCCl)NCCCO1 (stereo not given) [Clafen (Cyclophosphamide, Endoxan)] (drug 40000 nM) | -0.665 | 2.47 | -4.59 | -11.3 | 1.76 | -6.33 | 11 | -3.65 | 11.9 | -14 | -13.7 | 7.03 | -3.35 | -3.78 | -1.89
Nc1nc(Cl)nc2c1ncn2[C@@H]1O[C@H](CO)[C@@H](O)[C@@H]1F [Clofarabine] (drug 10000 nM) | -21.8 | -3.66 | -7.9 | -34.5 | -1.02 | 32.2 | 10.4 | 38.6 | 27.8 | 35.1 | 43 | 23.6 | 22.2 | 21.8 | 14.8
CCN(CC)CCOc1ccc(C(=C(Cl)c2ccccc2)c2ccccc2)cc1 [Clomifene citrate] (drug 10000 nM) | 86.8 | 97.3 | 85.5 | 84 | 57.7 | 12.8 | 85.5 | 40.8 | 48.9 | 21.6 | 26.1 | 24.1 | 42.3 | 23.4 | 36.7
C[C@@H](Oc1cc(-c2cnn(C3CCNCC3)c2)cnc1N)c1c(Cl)ccc(F)c1Cl [Crizotinib] (drug 1000 nM) | 4.07 | 7.24 | -4.38 | -15.8 | -0.481 | 0.562 | 6.55 | 0.597 | 2.79 | -19.1 | -7.52 | 0.927 | 0.924 | -7.38 | -5.41
CC1=C2C[C@H]3[C@@H](CC=C4C[C@@H](O)CC[C@@]43C)[C@@H]2CC[C@]12O[C@@H]1C[C@H](C)CN[C@H]1[C@H]2C [Cyclopamine] (drug 10000 nM) | 0.632 | -2.39 | -4.32 | -7.93 | -8.03 | -20.5 | -1.78 | -2.15 | 1.98 | -17.5 | -14 | -2.07 | -6.35 | -9.96 | -4.21
Nc1ccn([C@@H]2O[C@H](CO)[C@@H](O)[C@@H]2O)c(=O)n1 [Cytarabine] (drug 10000 nM) | 22.1 | 1.43 | -5.7 | 11 | 6.46 | 29.1 | 12 | 30.6 | -16.3 | 36.9 | 6.47 | 28.3 | 27.4 | 39.3 | 13
CN(C)/N=N/c1[nH]cnc1C(N)=O [Dacarbazine] (drug 10000 nM) | -7.07 | 6.76 | -13 | -17.3 | -11.3 | -17 | 10.7 | -0.257 | -1.82 | -8.78 | -10 | 0.27 | 6.57 | -2.8 | -13
Cc1c2oc3c(C)ccc(C(=O)N[C@@H]4C(=O)N[C@H](C(C)C)C(=O)N5CCC[C@H]5C(=O)N(C)CC(=O)N(C)[C@@H](C(C)C)C(=O)O[C@@H]4C)c3nc-2c(C(=O)N[C@@H]2C(=O)N[C@H](C(C)C)C(=O)N3CCC[C@H]3C(=O)N(C)CC(=O)N(C)[C@@H](C(C)C)C(=O)O[C@@H]2C)c(N)c1=O [Dactinomycin] (drug 1000 nM) | 95.6 | 88.4 | 36.7 | 81.9 | 61.6 | 74.5 | 72.2 | 63.4 | 62.7 | 49.2 | 31.5 | 55.6 | 60.9 | 45.4 | 53.8
Cn1c(=O)n(-c2ccc(C(C)(C)C#N)cc2)c2c3cc(-c4cnc5ccccc5c4)ccc3ncc21 [Dactolisib (NVP-BEZ235)] (drug 1000 nM) | 40.8 | 29.2 | 27.6 | 39.4 | 32.4 | 67.7 | 45 | 49.1 | 29.7 | 54.9 | 69.7 | 49.4 | 57 | 51 | 41.8
O=C(/C=C/c1cccnc1)NCCCCC1CCN(C(=O)c2ccccc2)CC1 [Daporinad (FK-866 HCl)] (drug 1000 nM) | 47.2 | 17.4 | 12.2 | 64.7 | -5.53 | 76.6 | 67.9 | 91.9 | 85.3 | 92.2 | 90.2 | -12.7 | 0.891 | -2.09 | -11.5

Source: the supplement of paper PMC4932681
